Data: patent EP3436445B1, “HISTONE DEMETHYLASE INHIBITORS” (Celgene Quanticel Research, Inc., priority 2016, dated 2017)

Columns and labels:
PHF8 = biological target: T1, PHF8 (Homo sapiens, UniProt Q9UPP1); experiment: PHF8 in vitro enzyme inhibition assay (TR-FRET); assay type: biochemical; conditions: Table 3; 3 nM PHF8, H3K9me1-biotin labeled peptide
T1 construct: purchased Active Motif 31435
Source text: (§1) This assay determines the ability of a test compound to inhibit FBXL11, FBXL10, and PHF8 demethylase activity. Baculovirus expressed FBXL11 (GenBank Accession #NM_012308, AA1-1162) was purchased from BPS Bioscience (Cat#50102). Baculovirus expressed FBXL10 (GenBank Accession #NM_032590, AA 1-650) was purchased from BPS Bioscience (Cat #50120). Baculovirus expressed PHF8 (GenBank Accession NP_055922.1) was purchased from Active Motif (Cat#31435).
The ability of test compounds to inhibit the activity of PHF8 was determined in 384-well plate format under the following reaction conditions: 3 nM PHF8, 200 nM H3K9me1-biotin labeled peptide (Anaspec cat #64358), 0.5 µM alpha-ketoglutaric acid in assay buffer of 50 mM HEPES, pH7.3, 0.005% Brij35, 0.5 mM TCEP, 0.2 mg/ml BSA, 50 µM sodium L-ascorbate, and 5 µM ammonium iron(II) sulfate. Reaction product was determined quantitatively by TR-FRET after the addition of detection reagent Phycolink Streptavidin-allophycocyanin (Prozyme) and Europium-anti-unmodified-histone H3 lysine 9/lysine27 (H3K9/K27) antibody (PerkinElmer) in the presence of 5 mM EDTA in LANCE detection buffer (PerkinElmer) at a final concentration of 25 nM and 0.5 nM, respectively.
The assay reaction was initiated by the following: 2 µl of the mixture of 600 nM H3K9me1-biotin labeled peptide and 1.5 µM alpha-ketoglutaric acid with 2 µl of 11-point serial diluted inhibitor in 3% DMSO were added to each well of the plate, followed by the addition of 2 µl of 9 nM PHF8 to initiate the reaction. The reaction mixture was incubated at room temperature for 15 minutes, and terminated by the addition of 6 µl of 5 mM EDTA in LANCE detection buffer containing 50 nM Phycolink Streptavidin-allophycocyanin and 1 nM Europium-anti-unmodified H3K9/K27 antibody. Plates were read by EnVision Multilabel Reader in TR-FRET mode (excitation at 320 nm, emission at 615 nm and 665 nm) after 1 hour incubation at room temperature. A ratio was calculated (665/615) for each well and fitted to determine inhibition constant (IC50).

FBXL10 = biological target: T2, FBXL10 (Homo sapiens, UniProt Q8NHM5); experiment: FBXL10 in vitro enzyme inhibition assay (AlphaScreen); assay type: biochemical; conditions: Table 3; 0.3 nM FBXL10, H3K36me2-biotin labeled peptide
T2 construct: purchased BPS Bioscience 50120
T2 sequence (Q8NHM5 1-650): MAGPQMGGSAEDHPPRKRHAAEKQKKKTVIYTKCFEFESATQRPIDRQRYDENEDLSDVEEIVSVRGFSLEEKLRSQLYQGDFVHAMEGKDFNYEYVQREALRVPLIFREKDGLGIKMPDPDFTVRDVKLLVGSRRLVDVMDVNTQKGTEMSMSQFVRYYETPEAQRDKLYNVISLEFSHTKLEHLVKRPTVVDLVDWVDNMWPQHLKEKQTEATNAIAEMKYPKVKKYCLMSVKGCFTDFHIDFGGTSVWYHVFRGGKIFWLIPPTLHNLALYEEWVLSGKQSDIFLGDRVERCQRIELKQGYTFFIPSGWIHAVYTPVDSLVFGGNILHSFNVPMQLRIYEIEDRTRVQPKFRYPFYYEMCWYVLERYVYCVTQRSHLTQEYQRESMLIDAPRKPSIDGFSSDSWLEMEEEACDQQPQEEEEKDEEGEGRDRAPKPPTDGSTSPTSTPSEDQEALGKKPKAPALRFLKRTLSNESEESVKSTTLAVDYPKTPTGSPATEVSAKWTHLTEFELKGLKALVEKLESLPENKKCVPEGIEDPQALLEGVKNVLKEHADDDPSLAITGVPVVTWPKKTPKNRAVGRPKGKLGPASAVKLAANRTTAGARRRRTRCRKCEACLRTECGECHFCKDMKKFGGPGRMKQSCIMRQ
Source text: as §1
The ability of test compounds to inhibit the activity of FBXL10 was determined in 384-well plate format under the following reaction conditions: 0.3 nM FBXL10, 30 nM H3K36me2-biotin labeled peptide (Anaspec cat # 64442), 0.2 µM alpha-ketoglutaric acid in assay buffer of 50 mM HEPES, pH7.3, 0.005% Brij35, 0.5 mM TCEP, 0.2 mg/ml BSA, 50 µM sodium L-ascorbate, 5 µM ammonium iron(II) sulfate. Reaction product is determined quantitatively by AlphaScreen detection after the addition of detection reagents anti-H3K36me1 antibody, AlphaScreen® Streptavidin-coated Donor beads, and AlphaScreen® Protein A Acceptor beads in 50 mM HEPES, pH7.3, 10 mM NaCl, 0.005% Brij35, 5 mM EDTA, 2 mg/ml BSA to final 10 µg/ml beads.
The assay reaction was initiated by the following: 3 µl of the mixture of 90 nM H3K36me2-biotin labeled peptide and 0.6 µM alpha-ketoglutaric acid with 3 µl of 11-point serial diluted inhibitor in 3% DMSO are added to each well of 384 well Proxiplate (Perkin Elmer), followed by the addition of 3 µl of 0.9 nM FBXL10 to initiate the reaction. The reaction mixture is incubated at room temperature for 1 hour, and terminated by the addition of 3 µl of appropriate dilution of anti H3K36me1 antibody in 50 mM HEPES, pH7.3, 10 mM NaCl, 0.005% Brij35, 5 mM EDTA, 2 mg/ml BSA. Plates will then incubated at room temperature for 40 minutes, followed by addition of 3 µl of 50 µg/ml AlphaScreen® Streptavidin-coated Donor beads and AlphaScreen® Protein A Acceptor beads in 50 mM HEPES, pH7.3, 10 mM NaCl, 0.005% Brij35, 5 mM EDTA, 2 mg/ml BSA. Plates will then be read by EnVision Multilabel Reader in AlphaScreen mode after minimum 2 hour incubation at room temperature. The AlphaScreen signal for each well is used to determine inhibition constant (IC50).

[1] = tested on: KDM2B-bound genes of the established Mia Paca-2 cancer cell line; experiment: Mia Paca-2 pancreatic cell line expression assay for KDM2B-related genes (real-time PCR); assay type: cell-based; conditions: Homo sapiens; Table 4; Mia Paca-2 cells; read-out: Cellular IC50
Source text: Gene expression assay to assess the ability of KDM2B small molecule inhibitors to activate the expression of KDM2B-bound genes of the established Mia Paca-2 cancer cell line.
This gene expression assay is a real-time PCR assay which quantifies the amount of messenger RNA from genes that are normally repressed by KDM2B interacting with EZH2 compared with a control GAPDH gene whose expression is not regulated by KDM2B. The amount of gene expression is correlated to the amount of small molecule inhibition of KDM2B's enzymatic activity.
The established cancer cell line Mia Paca-2 was purchased from American Type Culture Collection (ATCC) and routinely passaged according to ATCC published protocols. Cells were seeded at a density of 40,000 per 96-well. 24 hours after plating, cells received final concentrations of 20nM, 40nM, 80nM and 320nM of test compound. […] At the end of each of the compound incubation period, media was removed and cells were trypsinized according to the ATCC published protocol. mRNA was then harvested from the cell samples using a RNeasy kit (Qiagen). mRNA was quantified and qualified using a Nanodrop machine (Thermo Scientific). mRNA was converted to cDNA using the High-Capacity cDNA Reverse Transcription Kit (Applied Biosystems). […] Data was analyzed using the delta-delta Ct method to calculate fold enrichment over DMSO sample gene expression.

T1 sequence (Q9UPP1 37-1060): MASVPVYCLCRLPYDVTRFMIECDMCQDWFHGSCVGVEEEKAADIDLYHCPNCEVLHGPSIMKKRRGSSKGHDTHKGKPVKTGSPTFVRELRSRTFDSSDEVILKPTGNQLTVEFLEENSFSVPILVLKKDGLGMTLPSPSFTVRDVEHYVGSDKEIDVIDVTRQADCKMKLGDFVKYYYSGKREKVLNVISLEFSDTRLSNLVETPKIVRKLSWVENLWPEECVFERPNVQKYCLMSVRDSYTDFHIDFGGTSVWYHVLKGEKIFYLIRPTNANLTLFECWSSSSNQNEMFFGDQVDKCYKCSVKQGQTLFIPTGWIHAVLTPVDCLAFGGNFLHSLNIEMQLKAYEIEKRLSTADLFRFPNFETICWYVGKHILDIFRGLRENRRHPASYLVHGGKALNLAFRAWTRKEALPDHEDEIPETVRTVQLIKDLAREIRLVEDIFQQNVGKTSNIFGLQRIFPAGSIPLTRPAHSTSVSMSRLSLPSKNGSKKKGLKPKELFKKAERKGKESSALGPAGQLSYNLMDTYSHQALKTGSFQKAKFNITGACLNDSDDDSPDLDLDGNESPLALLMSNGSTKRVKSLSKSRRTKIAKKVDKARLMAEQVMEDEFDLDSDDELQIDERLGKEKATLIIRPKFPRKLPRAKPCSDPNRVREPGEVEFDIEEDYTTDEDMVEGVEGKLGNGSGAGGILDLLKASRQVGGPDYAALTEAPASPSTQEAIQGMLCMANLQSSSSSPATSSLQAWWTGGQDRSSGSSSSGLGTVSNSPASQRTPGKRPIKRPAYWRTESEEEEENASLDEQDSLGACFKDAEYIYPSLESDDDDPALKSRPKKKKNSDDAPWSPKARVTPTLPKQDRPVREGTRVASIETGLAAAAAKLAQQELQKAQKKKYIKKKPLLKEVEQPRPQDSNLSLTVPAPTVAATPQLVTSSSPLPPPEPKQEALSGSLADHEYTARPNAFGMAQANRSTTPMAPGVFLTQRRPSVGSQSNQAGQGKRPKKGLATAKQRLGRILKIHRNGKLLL

Row | SMILES | IC50 (PHF8) [nM] | IC50 (FBXL10) [nM] | IC50 [1] [nM]
1 | Clc1cc(Cl)cc(-n2cnc(-c3cc4[nH]nnc4cn3)c2)c1 [Example 52, 1-(3,5-dichlorophenyl)-4-{1H-[1,2,3]triazolo[4,5-c]pyridin-6-yl}-1H-imidazole] | 1000 to 10000 | 100 to 1000 | 
2 | FC(F)(F)c1[nH]nnc1-c1ccnc(-c2cn(CCc3cccc4ccccc34)cn2)c1 [Example 37, 2-[1-(2-naphthalen-1-ylethyl)imidazol-4-yl]-4-[5-(trifluoromethyl)-1H-triazol-4-yl]pyridine] |  |  | 100 to 1000
3 | Clc1ccccc1Cn1cnc(-c2cc(-c3cn[nH]n3)ccn2)c1Br [Example 55, 2-(5-bromo-1-(2-chlorobenzyl)-1H-imidazol-4-yl)-4-(2H-1,2,3-triazol-4-yl)pyridine] | 100 to 1000 | ≤ 100 | 
4 | FC(F)(F)Oc1ccccc1CCn1cnc(-c2cc(-c3c[nH]nn3)ccn2)c1 [Example 34] | 100 to 1000 | ≤ 100 | 
5 | c1nc(-c2cn(CC3CC3)cn2)cc2[nH]nnc12 [Example 42, 1-(cyclopropylmethyl)-4-{1H-[1,2,3]triazolo[4,5-c]pyridin-6-yl}-1H-imidazole] | 1000 to 10000 | ≤ 100 | 
6 | Cn1cnc(-c2cc(-c3nn[nH]c3F)ccn2)c1-c1ccc(F)cc1OCC1CC1 [Example 41, 2-[5-[2-(cyclopropylmethoxy)-4-fluorophenyl]-1-methylimidazol-4-yl]-4-(5-fluoro-1H-triazol-4-yl)pyridine] |  |  | 1000 to 10000
7 | Cn1cnc(-c2cc3[nH]nnc3cn2)c1-c1ccc(F)cc1 [Example 53, 5-(4-fluorophenyl)-1-methyl-4-{1H-[1,2,3]triazolo[4,5-c]pyridin-6-yl}-1H-imidazole] | 1000 to 10000 | 100 to 1000 | 
8 | c1ccc(-c2ccccc2CCn2cnc(-c3cc(-c4c[nH]nn4)ccn3)c2)cc1 [Example 27, 2-[1-[2-(2-phenylphenyl)ethyl]imidazol-4-yl]-4-(1H-triazol-4-yl)pyridine] |  | 100 to 1000 | 
9 | CC(Cc1ccccc1)n1cnc(-c2cc(-c3c[nH]nn3)ccn2)c1 (stereo not drawn) [Example 33, 2-[1-(1-phenylpropan-2-yl)imidazol-4-yl]-4-(1H-triazol-4-yl)pyridine] |  | 100 to 1000 | 
10 | Fc1c(Cn2cnc(-c3cc(-c4c[nH]nn4)ccn3)c2)cccc1OC(F)(F)F [Example 26, 2-[1-[[2-fluoro-3-(trifluoromethoxy)phenyl]methyl]imidazol-4-yl]-4-(1H-triazol-4-yl)pyridine] |  | 100 to 1000 | 
